Results from article PMC8253220, “Molecular design, synthesis and in vitro biological evaluation of thienopyrimidine–hydroxamic acids as chimeric kinase HDAC inhibitors: a challenging approach to combat cancer” (Journal of Enzyme Inhibition and Medicinal Chemistry, 2021).
Several values for one entry are separate records, joined by “and”; a condition that tells them apart may be missing. Identical values can stand only once.

Experiments:
EGFR = EGFR (Homo sapiens, UniProt P00533); assay: In vitro EGFR tyrosine kinase inhibitory assay (Z'-LYTE, SelectScreen); format: biochemical
Method: The target compounds were evaluated for their in vitro inhibitory activities against EGFR, VEGFR-2, and HDAC6. The EGFR and VEGFR-2 inhibitory assays were performed at Thermo Fischer Scientific, Madison, WI, USA (SelectScreenServices@thermofisher.com). The HDAC inhibitory assays were performed at BPS Bioscience, San Diego, CA, USA (www.bpsbioscience.com). Initially, all of the synthesised target compounds were evaluated for their percent inhibitory activity against EGFR, VEGFR-2, and HDACs at 10 µM single dose concentration, in which their mean percent inhibition is summarised in (Figure 5, Tables 1 and [2]). Representative compounds were evaluated for their percent inhibitory activity against EGFR and VEGFR-2 at 6 different concentrations (0.1 nM, 1 nM, 10 nM, 100 nM, 1 µM, 10 µM) to subsequently calculate their IC50 values (Table 3). Additionally, all of the synthesised target compounds were submitted to the National Cancer Institute “NCI” Bethesda, Maryland, USA (www.dtp.nci.nih.gov), to evaluate theirs in vitro antiproliferative activities against NCI 60- cancer cell line panel.
In vitro enzyme inhibition determination for the synthesised compounds was carried out in Thermo Fischer Scientific, Madison, WI, USA (SelectScreenServices@thermofisher.com). The EGFR and VEGFR-2 tyrosine kinase % inhibitory activity at a single-dose concentration of 10 µM was performed initially then representative compounds were evaluated at single-dose concentrations of (0.1 nM, 1 nM, 10 nM, 100 nM, 1 µM) using ZYLTE technology. A fluorescence-based, coupled-enzyme format is employed in the biochemical assay and depends on the sensitivity of proteolytic cleavage to non-phosphorylated and phosphorylated peptides. Then IC50 values for selected compounds were determined by GraphPad Prism at Misr international university.

full NCI 60 cell panel = assay: NCI one-dose screen, whole panel statistics; format: cell-based, human; settings: 1.00E-5 Molar; for Mean Growth Percent: mean over panel
Method: (§1) All of the synthesised structures were selected and submitted to NCI based on computer modelling techniques and the degree of diversity of structures for the evaluation of their antiproliferative activity. The 20 synthesised compounds were selected with their respective NCI codes [NCS D-820157- NCS D-820176] for the inhibition percent assay at an initial single dose of 10 μM on the full NCI 60 cell panel, where the mean graph of the percent growth for all compounds on the full NCI cell panel is evaluated, compared to the untreated control cells (Supplementary Material). In vitro cell line inhibition % of all synthesised compounds is represented in (Table 1 of Supplementary Material).
(§2) All of the synthesised compounds (20) were submitted to NCI and selected for in vitro anticancer assay against a panel of 60 cancer cell lines. The methodology of assay and calculations is as reported.

SK-OV-3 = assay: NCI one-dose screen; format: cell-based, human; settings: Ovarian SK-OV-3, 10 µM single dose
Method: as §1, §2

MDA-MB-435 = assay: NCI one-dose screen; format: cell-based, human; settings: Melanoma MDA-MB-435, 10 µM single dose
Method: as §1, §2

NCI-H23 = assay: NCI one-dose screen; format: cell-based, human; settings: NSCLC NCI-H23, 10 µM single dose
Method: as §1, §2

UACC-257 = assay: NCI one-dose screen; format: cell-based, human; settings: Melanoma UACC-257, 10 µM single dose
Method: as §1, §2

HCT-15 = assay: NCI one-dose screen; format: cell-based, human; settings: Colon HCT-15, 10 µM single dose
Method: as §1, §2

IGROV1 = assay: NCI one-dose screen; format: cell-based, human; settings: Ovarian IGROV1, 10 µM single dose
Method: as §1, §2

K-562 = assay: NCI one-dose screen; format: cell-based, human; settings: Leukemia K-562, 10 µM single dose
Method: as §1, §2

T-47D = assay: NCI one-dose screen; format: cell-based, human; settings: Breast T-47D, 10 µM single dose
Method: as §1, §2

M14 = assay: NCI one-dose screen; format: cell-based, human; settings: Melanoma M14, 10 µM single dose
Method: as §1, §2

VEGFR-2 = VEGFR-2 (Homo sapiens, UniProt P35968); assay: In vitro VEGFR-2 tyrosine kinase inhibitory assay (Z'-LYTE, SelectScreen); format: biochemical
Procedure, shortened: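 Z'-LYTE fluorescence coupled-enzyme format, read-out based on differential protease cleavage of phosphorylated vs non-phosphorylated peptide. Compounds screened at 10 µM single dose for % inhibition, then selected ones tested at 0.1 nM–10 µM for IC50 by curve fitting.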

Hela nuclear extracts = assay: Hela nuclear extract HDAC inhibitor assay (BPS Bioscience); format: biochemical; settings: 10 µM
Procedure, shortened: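 HeLa nuclear extract (20-fold diluted) was incubated with […] HDAC Substrate 3, 5 µg BSA and compound (1% DMSO final) at 37 °C for 60 min, in duplicate. After 15 min with HDAC developer at room temperature, fluorescence was read at 360/460 nm and % activity normalized to no-compound and no-extract controls.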

EGFR, sequence (P00533 25-1210): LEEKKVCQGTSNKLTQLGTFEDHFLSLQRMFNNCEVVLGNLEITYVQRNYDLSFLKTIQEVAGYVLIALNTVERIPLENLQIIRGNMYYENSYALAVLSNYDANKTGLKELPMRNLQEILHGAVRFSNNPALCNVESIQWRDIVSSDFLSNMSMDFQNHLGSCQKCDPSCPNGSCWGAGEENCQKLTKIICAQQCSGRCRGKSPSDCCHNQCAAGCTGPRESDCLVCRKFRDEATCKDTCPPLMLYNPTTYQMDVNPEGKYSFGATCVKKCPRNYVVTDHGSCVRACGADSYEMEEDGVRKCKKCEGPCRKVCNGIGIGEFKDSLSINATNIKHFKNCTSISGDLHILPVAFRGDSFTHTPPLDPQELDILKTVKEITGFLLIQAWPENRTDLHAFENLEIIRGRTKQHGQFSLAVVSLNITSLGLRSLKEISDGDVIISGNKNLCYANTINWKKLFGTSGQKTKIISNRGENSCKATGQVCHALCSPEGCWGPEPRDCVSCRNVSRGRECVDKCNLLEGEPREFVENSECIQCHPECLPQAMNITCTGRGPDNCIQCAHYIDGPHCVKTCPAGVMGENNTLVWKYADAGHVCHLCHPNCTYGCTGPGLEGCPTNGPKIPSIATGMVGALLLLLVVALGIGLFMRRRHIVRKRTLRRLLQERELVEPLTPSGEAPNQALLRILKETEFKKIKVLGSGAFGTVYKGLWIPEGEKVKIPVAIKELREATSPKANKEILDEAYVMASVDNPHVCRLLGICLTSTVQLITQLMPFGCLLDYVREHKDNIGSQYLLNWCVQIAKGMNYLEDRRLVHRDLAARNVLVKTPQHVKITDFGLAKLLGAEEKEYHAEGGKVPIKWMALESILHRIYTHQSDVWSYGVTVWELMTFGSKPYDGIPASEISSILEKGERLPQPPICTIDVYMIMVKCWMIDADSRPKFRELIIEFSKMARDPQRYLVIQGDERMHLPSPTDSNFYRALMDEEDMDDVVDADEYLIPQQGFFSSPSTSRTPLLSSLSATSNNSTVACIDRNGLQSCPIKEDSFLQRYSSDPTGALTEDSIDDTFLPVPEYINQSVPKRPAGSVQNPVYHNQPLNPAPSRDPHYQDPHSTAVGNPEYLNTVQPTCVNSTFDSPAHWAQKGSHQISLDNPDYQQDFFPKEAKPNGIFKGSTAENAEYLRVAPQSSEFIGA
VEGFR-2, sequence (P35968 20-1356): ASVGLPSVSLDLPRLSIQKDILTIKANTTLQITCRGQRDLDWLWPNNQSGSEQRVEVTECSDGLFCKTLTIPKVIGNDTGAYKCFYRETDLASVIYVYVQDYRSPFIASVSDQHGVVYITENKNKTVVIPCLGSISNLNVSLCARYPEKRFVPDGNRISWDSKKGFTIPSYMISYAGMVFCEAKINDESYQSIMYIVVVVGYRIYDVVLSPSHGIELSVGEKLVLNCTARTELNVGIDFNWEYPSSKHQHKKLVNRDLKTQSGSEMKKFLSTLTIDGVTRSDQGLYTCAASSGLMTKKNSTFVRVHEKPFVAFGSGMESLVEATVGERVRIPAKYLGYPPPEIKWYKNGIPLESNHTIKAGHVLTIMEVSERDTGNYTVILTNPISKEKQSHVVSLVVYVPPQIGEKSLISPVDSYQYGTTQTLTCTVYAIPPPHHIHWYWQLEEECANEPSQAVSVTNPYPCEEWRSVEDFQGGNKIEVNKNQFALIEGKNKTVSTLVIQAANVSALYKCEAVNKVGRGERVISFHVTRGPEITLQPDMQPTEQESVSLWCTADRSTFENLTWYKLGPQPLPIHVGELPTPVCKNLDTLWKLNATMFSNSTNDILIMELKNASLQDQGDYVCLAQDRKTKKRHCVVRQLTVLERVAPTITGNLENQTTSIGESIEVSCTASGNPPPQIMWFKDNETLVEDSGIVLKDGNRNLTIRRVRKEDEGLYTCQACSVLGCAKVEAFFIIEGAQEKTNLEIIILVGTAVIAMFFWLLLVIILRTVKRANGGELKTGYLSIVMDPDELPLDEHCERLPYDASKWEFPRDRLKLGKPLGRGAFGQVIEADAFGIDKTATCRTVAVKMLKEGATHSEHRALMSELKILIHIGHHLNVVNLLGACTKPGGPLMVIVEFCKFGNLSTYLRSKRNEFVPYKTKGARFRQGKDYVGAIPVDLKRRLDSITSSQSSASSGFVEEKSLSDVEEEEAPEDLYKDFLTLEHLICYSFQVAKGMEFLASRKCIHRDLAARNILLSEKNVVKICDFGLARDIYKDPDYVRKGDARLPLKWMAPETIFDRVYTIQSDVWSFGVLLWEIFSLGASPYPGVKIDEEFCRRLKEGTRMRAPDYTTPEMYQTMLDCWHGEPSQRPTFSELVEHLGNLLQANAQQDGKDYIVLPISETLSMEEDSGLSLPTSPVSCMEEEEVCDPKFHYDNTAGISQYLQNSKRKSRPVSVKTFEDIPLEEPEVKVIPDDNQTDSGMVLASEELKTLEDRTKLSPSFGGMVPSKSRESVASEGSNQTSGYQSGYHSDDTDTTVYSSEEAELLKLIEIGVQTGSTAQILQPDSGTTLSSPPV

Compound: Cc1c(C(=O)NCCCC(=O)NO)sc2ncnc(Nc3ccc(NC(=O)Nc4cccc(C(F)(F)F)c4)cc3)c12 [Compound 12c, 1–(4-(6-((4-(hydroxyamino)-4-oxobutyl)carbamoyl)-5-methylthieno[2,3-d]pyrimidin-4-ylamino)phenyl)-3–(3-(trifluoromethyl)phenyl)urea]
- inhibition at 0.0001 µM (EGFR; 0.1 nM compound, 10 μM ATP, read-out: % Inhibition mean, EGFR (ErbB1)): 6%
- inhibition at 0.001 µM (EGFR; 1 nM compound, 10 μM ATP, read-out: % Inhibition mean, EGFR (ErbB1)): 4%
- inhibition at 0.01 µM (EGFR; 10 nM compound, 10 μM ATP, read-out: % Inhibition mean, EGFR (ErbB1)): 4%
- inhibition at 0.1 µM (EGFR; 100 nM compound, 10 μM ATP, read-out: % Inhibition mean, EGFR (ErbB1)): 7%
- inhibition at 1 µM (EGFR; 1000 nM compound, 10 μM ATP, read-out: % Inhibition mean, EGFR (ErbB1)): 34%
- inhibition at 10 µM (EGFR; 10 µM single dose): 66%
- IC50 (EGFR; read-out: IC50 in enzyme assays EGFR): 1.14 µM
- Delta (one dose mean graph) (full NCI 60 cell panel): 33.40%
- Range (one dose mean graph) (full NCI 60 cell panel): 59.27%
- Mean Growth Percent (full NCI 60 cell panel): 104.16%
- Growth Percent (SK-OV-3): 113.9% and 113.94%
- Growth Percent (MDA-MB-435): 101.5% and 101.59%
- Growth Percent (NCI-H23): 104.6% and 104.64%
- Growth Percent (UACC-257): 107.0%
- Growth Percent (HCT-15): 99.9% and 99.96%
- Growth Percent (IGROV1): 116.7% and 116.77%
- Growth Percent (K-562): 103.8% and 103.86%
- Growth Percent (T-47D): 109.7% and 109.79%
- Growth Percent (M14): 107.2% and 107.23%
- melting point: 215 to 217 °C
- inhibition at 0.0001 µM (VEGFR-2; 0.1 nM compound, 10 μM ATP, read-out: % Inhibition mean, KDR (VEGFR2)): 5%
- inhibition at 0.001 µM (VEGFR-2; 1 nM compound, 10 μM ATP, read-out: % Inhibition mean, KDR (VEGFR2)): 10%
- inhibition at 0.01 µM (VEGFR-2; 10 nM compound, 10 μM ATP, read-out: % Inhibition mean, KDR (VEGFR2)): 5%
- inhibition at 0.1 µM (VEGFR-2; 100 nM compound, 10 μM ATP, read-out: % Inhibition mean, KDR (VEGFR2)): 36%
- inhibition at 1 µM (VEGFR-2; 1000 nM compound, 10 μM ATP, read-out: % Inhibition mean, KDR (VEGFR2)): 90%
- Mean % inhibition VEGFR-2 (VEGFR-2; 10 µM single dose): 100%
- inhibition at 10 µM (VEGFR-2; 10 µM single dose): 103%
- IC50 (VEGFR-2; read-out: IC50 in enzyme assays VEGFR-2): 0.185 µM
- % Inhibition Hela Nuclear Extracts (Hela nuclear extracts): 7%

Compound: Cc1c(C(=O)NCCC(=O)NO)sc2ncnc(Nc3ccc(NC(=O)Nc4ccccc4)cc3)c12 [Compound 11a, 1–(4-(6-((3-(hydroxyamino)-3-oxopropyl)carbamoyl)-5-methylthieno[2,3-d]pyrimidin-4-ylamino)phenyl)-3-phenylurea]
- inhibition at 10 µM (EGFR; 10 µM single dose): 12%
- Delta (one dose mean graph) (full NCI 60 cell panel): 21.26%
- Range (one dose mean graph) (full NCI 60 cell panel): 44.07%
- Mean Growth Percent (full NCI 60 cell panel): 100.98%
- Growth Percent (SK-OV-3): 123.7% and 123.79%
- Growth Percent (MDA-MB-435): 102.2% and 102.21%
- Growth Percent (NCI-H23): 96.1% and 96.12%
- Growth Percent (UACC-257): 101.0% and 101.08%
- Growth Percent (HCT-15): 95.7% and 95.77%
- Growth Percent (IGROV1): 103.0% and 103.03%
- Growth Percent (K-562): 108.3% and 108.34%
- Growth Percent (T-47D): 107.7% and 107.73%
- Growth Percent (M14): 99.1% and 99.16%
- melting point: 225 °C
- inhibition at 10 µM (VEGFR-2; 10 µM single dose): 47%
- % Inhibition Hela Nuclear Extracts (Hela nuclear extracts): 0%

Compound: Cc1c(C(=O)NCCCC(=O)NO)sc2ncnc(Nc3ccc(Cl)cc3)c12 [Compound 20c, 4–(4-chlorophenylamino)-N-(4-(hydroxyamino)-4-oxobutyl)-5-methylthieno[2,3-d]pyrimidine-6-carboxamide]
- Mean % inhibition EGFR (EGFR; 10 µM single dose): 91%
- inhibition at 10 µM (EGFR; 10 µM single dose): 96%
- Delta (one dose mean graph) (full NCI 60 cell panel): 23.92%
- Range (one dose mean graph) (full NCI 60 cell panel): 73.06%
- Mean Growth Percent (full NCI 60 cell panel): 103.09%
- Growth Percent (SK-OV-3): 112.9% and 112.92%
- Growth Percent (MDA-MB-435): 103.8% and 103.83%
- Growth Percent (NCI-H23): 94.9% and 94.98%
- Growth Percent (UACC-257): 112.8% and 112.86%
- Growth Percent (HCT-15): 99.0% and 99.06%
- Growth Percent (IGROV1): 81.1% and 81.14%
- Growth Percent (K-562): 108.0%
- Growth Percent (T-47D): 105.2% and 105.24%
- Growth Percent (M14): 107.6% and 107.62%
- melting point: 212 °C
- inhibition at 10 µM (VEGFR-2; 10 µM single dose): 35%
- % Inhibition Hela Nuclear Extracts (Hela nuclear extracts): 3%
